For the test, the system named is SARS-CoV-2. It is filed as cell-based.

These results are taken from paper PMC9526870 (iScience, 2022).

For `CCC(CC)COC(=O)[C@H](C)N[P@](=O)(OC[C@H]1O[C@@](C#N)(c2ccc3c(N)ncnn23)[C@H](O)[C@@H]1O)Oc1ccccc1` [remdesivir], the “SARS-CoV-2 fluorescence signal in host cells (in words)” value is “depletion of the SARS-CoV-2 fluorescence signal”.
